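Results reflect a 48-hour exposure of cells in 96-well plates to compound at five concentrations. Definition used: TGI = concentration required for complete inhibition of growth.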
Legend:
Assay in all cases: inhibition of tumour cell growth, NCI panel, 48 h
[1] = test system: EKVX NSCLC
[2] = test system: K-562 leukemia
[3] = test system: NCI-H23 lung
[4] = test system: SF-295 CNS
[5] = test system: HS 578T breast
[6] = test system: SK-MEL-5 melanoma
[7] = test system: NCI-H226 lung
[8] = test system: IGROV1 ovarian
[9] = test system: T-47D breast
[10] = test system: HOP-92 NSCLC
[11] = test system: TK-10 renal
[12] = test system: M14 melanoma
[13] = test system: 786-0 renal
[14] = test system: MDA-MB-435
[15] = test system: NCI/ADR-RES ovarian
[16] = test system: MCF7 breast
[17] = test system: U251 CNS
[18] = test system: SF-539 CNS
[19] = test system: MDA-N
[20] = test system: ACHN renal
[21] = test system: OVCAR-4 ovarian
[22] = test system: SK-OV-3 ovarian
[23] = test system: UACC-62 melanoma
[24] = test system: PC-3 prostate
[25] = test system: NCI-H460 lung
[26] = test system: UACC-257 melanoma
[27] = test system: MOLT-4 leukemia
[28] = test system: DU-145 prostate
[29] = test system: HL-60(TB) leukemia
[30] = test system: SK-MEL-2 melanoma
[31] = test system: HCT-116 colon
[32] = test system: RXF 393 renal
[33] = test system: CCRF-CEM leukemia
[34] = test system: HCT-15 colon
[35] = test system: LOX IMVI melanoma
[36] = test system: SNB-75 CNS
[37] = test system: COLO 205 colon
[38] = test system: HT29 colon
[39] = test system: A498 renal
[40] = test system: SW-620 colon
[41] = test system: MDA-MB-231 breast
[42] = test system: OVCAR-3 ovarian
[43] = test system: CAKI-1 renal
[44] = test system: SN12C renal
[45] = test system: OVCAR-5 ovarian
[46] = test system: A549 NSCLC
[47] = test system: SF-268 CNS
[48] = test system: RPMI-8226 leukemia
[49] = test system: OVCAR-8 ovarian
[50] = test system: UO-31 renal
[51] = test system: SNB-19 CNS
[52] = test system: NCI-H522 lung
[53] = test system: KM12 colon
[54] = test system: BT-549 breast
[55] = test system: HCC-2998 colon
[56] = test system: HOP-62 NSCLC
[57] = test system: MALME-3M melanoma
[58] = test system: SK-MEL-28 melanoma

## NS(=O)(=O)c1ccc(NC(=S)/N=C/c2c(O)c3ccccc3oc2=O)cc1
[1]
  TGI: > 100 µM
[2]
  TGI: > 100 µM
[3]
  TGI: > 100 µM
[4]
  TGI: > 100 µM
[5]
  TGI: 99.6 µM
[6]
  TGI: 96.1 µM
[7]
  TGI: 61 µM
[8]
  TGI: 97.1 µM
[9]
  TGI: > 100 µM
[10]
  TGI: 68.1 µM
[11]
  TGI: > 100 µM
[12]
  TGI: > 100 µM
[13]
  TGI: > 100 µM
[14]
  TGI: > 100 µM
[15]
  TGI: > 100 µM
[16]
  TGI: > 100 µM
[17]
  TGI: > 100 µM
[18]
  TGI: > 100 µM
[19]
  TGI: > 100 µM
[20]
  TGI: > 100 µM
[21]
  TGI: > 100 µM
[22]
  TGI: > 100 µM
[23]
  TGI: > 100 µM
[24]
  TGI: > 100 µM
[25]
  TGI: > 100 µM
[26]
  TGI: > 100 µM
[27]
  TGI: > 100 µM
[28]
  TGI: > 100 µM
[29]
  TGI: > 100 µM
[30]
  TGI: > 100 µM
[31]
  TGI: > 100 µM
[32]
  TGI: 80.9 µM
[33]
  TGI: > 100 µM
[34]
  TGI: > 100 µM
[35]
  TGI: > 100 µM
[36]
  TGI: 53.3 µM
[37]
  TGI: > 100 µM
[38]
  TGI: > 100 µM
[39]
  TGI: 64.1 µM
[40]
  TGI: > 100 µM
[41]
  TGI: 65 µM
[42]
  TGI: > 100 µM
[43]
  TGI: 62.4 µM
[44]
  TGI: > 100 µM
[45]
  TGI: > 100 µM
[46]
  TGI: > 100 µM
[47]
  TGI: > 100 µM
[48]
  TGI: > 100 µM
[49]
  TGI: > 100 µM
[50]
  TGI: 87.6 µM
[51]
  TGI: 85.5 µM
[52]
  TGI: 88.6 µM
[53]
  TGI: > 100 µM
[54]
  TGI: > 100 µM
[55]
  TGI: > 100 µM
[56]
  TGI: > 100 µM

## OC1CCCN(C2(c3cccs3)CCCCC2)C1 (configuration not stated)
[1]
  TGI: > 100 µM
[2]
  TGI: > 100 µM
[3]
  TGI: > 100 µM
[4]
  TGI: > 100 µM
[5]
  TGI: > 100 µM
[6]
  TGI: > 100 µM
[8]
  TGI: > 100 µM
[9]
  TGI: > 100 µM
[10]
  TGI: > 100 µM
[11]
  TGI: > 100 µM
[13]
  TGI: > 100 µM
[14]
  TGI: > 100 µM
[15]
  TGI: > 100 µM
[16]
  TGI: > 100 µM
[17]
  TGI: > 100 µM
[19]
  TGI: > 100 µM
[20]
  TGI: > 100 µM
[21]
  TGI: > 100 µM
[22]
  TGI: > 100 µM
[23]
  TGI: > 100 µM
[24]
  TGI: > 100 µM
[25]
  TGI: > 100 µM
[26]
  TGI: > 100 µM
[27]
  TGI: > 100 µM
[28]
  TGI: > 100 µM
[29]
  TGI: > 100 µM
[30]
  TGI: > 100 µM
[31]
  TGI: > 100 µM
[32]
  TGI: > 100 µM
[34]
  TGI: > 100 µM
[35]
  TGI: > 100 µM
[36]
  TGI: > 100 µM
[37]
  TGI: > 100 µM
[38]
  TGI: > 100 µM
[39]
  TGI: > 100 µM
[40]
  TGI: > 100 µM
[41]
  TGI: > 100 µM
[42]
  TGI: > 100 µM
[43]
  TGI: > 100 µM
[44]
  TGI: > 100 µM
[45]
  TGI: > 100 µM
[47]
  TGI: > 100 µM
[48]
  TGI: > 100 µM
[57]
  TGI: > 100 µM
[49]
  TGI: > 100 µM
[52]
  TGI: > 100 µM
[53]
  TGI: > 100 µM
[54]
  TGI: > 100 µM
[58]
  TGI: > 100 µM
[55]
  TGI: > 100 µM
[56]
  TGI: > 100 µM

From PubChem BioAssay (NCI)
